Laboratory results as given in patent EP3558896B1, “USE OF ARYL S[…] TRIAMIDE UREASE INHIBITORS WITH PHOSPHORUS-[…] FERTILIZERS” (BASF SE, priority 2016, dated 2018).

Test: Decomposition of urease inhibitors on treated urea granules mixed with triple super phosphate (TSP) granules
Type: physicochemical
Conditions: after one day in the absence of TSP granules

SMILES	decomposition of the urease inhibitors
CCCNP(N)(N)=S [NPPT, N-n-propylthiophosphoric acid triamide]	no decomposition
CCCCNP(N)(N)=S [NBPT, N-n-butylthiophosphoric acid triamide]	no decomposition
